Test results: ChEMBL document CHEMBL1153387 (J Med Chem, 2009)
The source made the active and inactive calls. The rule behind the calls is not given here. Starred links: 1 amine or outer side, 2 acyl side, 3 side chain; linkers in the order of their positions; H or OH if unused. Non-standard residues stand in square brackets, D forms with d. Residues, ends and D or L forms follow the SMILES beside them. *: point of attachment. NMeβ3hLys = CN([C@@H](CCCCN)CC(=O)[*:2])[*:1]; Pentanoyl(5-guanidino) = NC(N)=NCCCCC(=O)*; X1 = [N-]=[N+]=N[C@@H](CCCNC(=N)N)C(=O)*; αMeR = C[C@](N)(CCCNC(=N)N)C(=O)O; Tle = CC(C)(C)[C@H](N)C(=O)O; X3 = C[C@](N)(CCCCN)CC(=O)*; β3hK = NCCCC[C@H](N)CC(=O)O; Ahp = NCCCCCCC(=O)O

Assays:
[1] = Metabolic stability in rat serum assessed as half time of disappearance at 1 mM by MALDI-TOF mass spectrometry assay; format: ADME, cell-free; settings: read-out: T50
[2] = biological target: T1, Neurotensin receptor type 1 (Homo sapiens, UniProt P30989); test: Displacement of [125I]I-Tyr(3)NT from human NTR1
[3] = Metabolic stability in human serum assessed as half time of disappearance at 1 mM by MALDI-TOF mass spectrometry assay; format: ADME, cell-free; settings: read-out: T50
[4] = biological target: T1, Neurotensin receptor type 1; test: Agonist activity at NTR1 in human HT-29 cells assessed as increase in intracellular calcium concentration by FLIPR assay; format: functional, cell-based
Serum [5] = test: Metabolic stability in human serum assessed as compound degradation rate at 1 mM by MALDI-TOF mass spectrometry assay; format: ADME, cell-free; settings: 1000 µM
Serum [6] = test: Metabolic stability in rat serum assessed as compound degradation rate at 1 mM by MALDI-TOF mass spectrometry assay; format: ADME, cell-free; settings: 1000 µM
Rattus norvegicus [7] = test: Hypothermic activity in Sprague-Dawley rat assessed as time duration of maximal body temperature decrease at 5 mg/kg, ip; format: functional; settings: route intraperitoneal
Rattus norvegicus [8] = test: Hypothermic activity in Sprague-Dawley rat assessed as decrease in core body temperature at 5 mg/kg, ip at time of maximal body temperature decrease; format: functional; settings: route intraperitoneal
[9] = biological target: T1, Neurotensin receptor type 1; test: Agonist activity at NTR1 in human HT-29 cells assessed as increase in intracellular calcium concentration in presence of NTR1 antagonist SR-48692 by FLIPR assay; format: functional, cell-based
[10] = biological target: T1, Neurotensin receptor type 1; test: Binding affinity to human NTR1

T1 sequence (P30989 whole entry): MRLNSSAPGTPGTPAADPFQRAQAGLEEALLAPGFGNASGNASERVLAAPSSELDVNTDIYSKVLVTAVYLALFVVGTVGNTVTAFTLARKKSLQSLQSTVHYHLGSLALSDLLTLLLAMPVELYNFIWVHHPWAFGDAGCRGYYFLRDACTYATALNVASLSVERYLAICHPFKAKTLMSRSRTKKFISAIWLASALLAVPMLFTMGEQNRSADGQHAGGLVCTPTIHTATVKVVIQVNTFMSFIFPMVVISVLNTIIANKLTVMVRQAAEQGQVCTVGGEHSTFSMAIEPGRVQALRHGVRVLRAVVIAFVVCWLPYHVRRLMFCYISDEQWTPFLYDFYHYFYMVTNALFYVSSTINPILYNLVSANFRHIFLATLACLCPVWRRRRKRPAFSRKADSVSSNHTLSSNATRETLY

Structure (SMILES) | half-life at 1000 µM [1] | IC50 [2] | Ki [2] | half-life at 1000 µM [3] | EC50 [4] | Activity (Serum [5]) | Activity (Serum [6]) | Activity [9] | Ki [10] | Time (Rattus norvegicus [7]) | Activity (Rattus norvegicus [8])
CC(C)C[C@H](NC(=O)[C@@H](NC(=O)[C@H](Cc1c[nH]c2ccccc12)NC(=O)[C@@H]1CCCN1C(=O)[C@H](CCCCN)NC(=O)[C@@H](N)CCCN=C(N)N)C(C)(C)C)C(=O)O (H-RKPW[Tle]L-OH) | 0.225 h | 403 nM | 303 nM | 0.263 h | 217 nM | 31.8 µmol/min | 37 µmol/min |  |  |  | 
CN[C@@H](CCCCN)CC(=O)N[C@@H](CCCN=C(N)N)C(=O)N1CCC[C@H]1C(=O)N[C@@H](Cc1ccc(O)cc1)C(=O)N[C@H](C(=O)N[C@@H](CC(C)C)C(=O)O)C(C)(C)C (NMeβ3hLys-RPY[Tle]L-OH) | 71.8 h | 27 nM | 20.3 nM | 57.2 h | 7.96 nM | 0.146 µmol/min | 0.117 µmol/min |  |  |  | 
CC(C)C[C@H](NC(=O)[C@@H](NC(=O)[C@H](Cc1c[nH]c2ccccc12)NC(=O)[C@@H]1CCCN1C(=O)[C@H](CCCCN)NC(=O)[C@@](C)(N)CCCNC(=N)N)C(C)(C)C)C(=O)O (H-[αMeR]KPW[Tle]L-OH) | 87.8 h | 2900 nM | 2170 nM | 132 h | 1860 nM | 0.064 µmol/min | 0.095 µmol/min |  |  | 120 min | -4.28 °C
CC(=O)N[C@@H](CCCCN)CC(=O)N[C@@H](CCCN=C(N)N)C(=O)N1CCC[C@H]1C(=O)N[C@@H](Cc1ccc(O)cc1)C(=O)N[C@H](C(=O)N[C@@H](CC(C)C)C(=O)O)C(C)(C)C (Ac-[β3hK]RPY[Tle]L-OH) | 57 h | 181 nM | 136 nM | 54.5 h | 57.7 nM | 0.153 µmol/min | 0.146 µmol/min |  |  |  | 
CC[C@H](C)[C@H](NC(=O)[C@H](Cc1ccc(O)cc1)NC(=O)[C@@H]1CCCN1C(=O)[C@H](CCCNC(=N)N)NC(=O)[C@H](CCCNC(=N)N)NC(C)=O)C(=O)N[C@@H](CC(C)C)C(=O)O | 3.5 h |  |  | 11.9 h |  | 0.701 µmol/min | 2.38 µmol/min |  |  |  | 
CC(C)C[C@H](NC(=O)[C@@H](NC(=O)[C@H](Cc1c[nH]c2ccccc12)NC(=O)[C@@H]1CCCN1C(=O)[C@H](CCCCN)NC(=O)[C@@H](N)CCCNC(=N)N)C(C)(C)C)C(=O)O (H-RKPW[Tle]L-OH) |  |  |  |  |  |  |  |  |  | 120 min | -2.11 °C
CC(=O)N[C@@H](CCCCN)CC(=O)N[C@@H](CCCNC(=N)N)C(=O)N1CCC[C@H]1C(=O)N[C@@H](Cc1ccc(O)cc1)C(=O)N[C@H](C(=O)N[C@@H](CC(C)C)C(=O)O)C(C)(C)C (Ac-[β3hK]RPY[Tle]L-OH) |  |  |  |  |  |  |  |  |  | 150 min | -3.54 °C
CC(=O)N[C@@H](CCCNC(=N)N)C(=O)N[C@@H](CCCCN)C(=O)N1CCC[C@H]1C(=O)N[C@@H](Cc1c[nH]c2ccccc12)C(=O)N[C@H](C(=O)N[C@@H](CC(C)C)C(=O)O)C(C)(C)C (Ac-RKPW[Tle]L-OH) | 94.3 h | 863 nM | 647 nM | 124 h | 764 nM | 0.068 µmol/min | 0.089 µmol/min |  |  | 270 min | -4.3 °C
CC[C@@H](C)[C@H](NC(=O)[C@H](Cc1ccc(O)cc1)NC(=O)[C@@H]1CCCN1C(=O)[C@H](CCCNC(=N)N)NC(=O)CCCCNC(=N)N)C(=O)N[C@@H](CC(C)C)C(=O)O | 1.45 h | 2.68 nM | 2.01 nM | 3.83 h | 1.85 nM | 2.17 µmol/min | 5.74 µmol/min |  |  | 120 min | -0.99 °C
CN[C@@H](CCCCN)CC(=O)N[C@@H](CCCNC(=N)N)C(=O)N1CCC[C@H]1C(=O)N[C@@H](Cc1ccc(O)cc1)C(=O)N[C@H](C(=O)N[C@@H](CC(C)C)C(=O)O)C(C)(C)C (NMeβ3hLys-RPY[Tle]L-OH) |  |  |  |  |  |  |  |  |  | 180 min | -3.68 °C
CC[C@H](C)[C@H](NC(=O)[C@H](Cc1ccc(O)cc1)NC(=O)[C@@H]1CCCN1C(=O)[C@H](CCCN=C(N)N)NC(=O)[C@@H](N)CCCN=C(N)N)C(=O)N[C@@H](CC(C)C)C(=O)O |  |  |  |  |  |  |  |  |  | 300 min | -0.55 °C
CC[C@H](C)[C@H](NC(=O)[C@H](Cc1ccc(O)cc1)NC(=O)[C@@H]1CCCN1C(=O)[C@H](CCCN=C(N)N)NC(=O)[C@H](CCCN=C(N)N)NC(C)=O)C(=O)N[C@@H](CC(C)C)C(=O)O |  |  |  |  |  |  |  |  |  | 90 min | -0.71 °C
CC[C@@H](C)[C@H](NC(=O)[C@H](Cc1ccc(O)cc1)NC(=O)[C@@H]1CCCN1C(=O)[C@H](CCCNC(=N)N)NC(=O)[C@H](CCCNC(=N)N)NC)C(=O)N[C@@H](CC(C)C)C(=O)O | 4.33 h | 0.383 nM | 0.29 nM | 14 h | 0.853 nM | 0.593 µmol/min | 1.92 µmol/min |  |  | 120 min | -1.55 °C

Continued, in another order:

half-life at 1000 µM [1] | IC50 [2] | Ki [2] | half-life at 1000 µM [3] | EC50 [4] | Activity (Serum [5]) | Activity (Serum [6]) | Activity [9] | Ki [10] | Structure (SMILES) | Time (Rattus norvegicus [7]) | Activity (Rattus norvegicus [8])
67.8 h | 140 nM | 105 nM | 120 h | 151 nM | 0.07 µmol/min | 0.123 µmol/min | inactive |  | CC(C)C[C@H](NC(=O)[C@@H](NC(=O)[C@H](Cc1c[nH]c2ccccc12)NC(=O)[C@@H]1CCCN1C(=O)[C@H](CCCCN)NC(=O)[C@H](CCCNC(=N)N)N=[N+]=[N-])C(C)(C)C)C(=O)O (X1-KPW[Tle]L-OH) | 240 min | -4.29 °C
108 h | 842 nM | 631 nM | 103 h | 783 nM | 0.081 µmol/min | 0.078 µmol/min |  |  | CC(C)C[C@H](NC(=O)[C@@H](NC(=O)[C@H](Cc1c[nH]c2ccccc12)NC(=O)[C@@H]1CCCN1C(=O)[C@H](CCCCN)NC(=O)CCCCNC(=N)N)C(C)(C)C)C(=O)O ({Pentanoyl(5-guanidino)}-KPW[Tle]L-OH) | 240 min | -5.02 °C
49.7 h | 13.9 nM | 10.4 nM | 42.8 h | 6.44 nM | 0.194 µmol/min | 0.166 µmol/min |  | 9.9 nM | CC(C)C[C@H](NC(=O)[C@@H](NC(=O)[C@H](Cc1ccc(O)cc1)NC(=O)[C@@H]1CCCN1C(=O)[C@H](CCCNC(=N)N)NC(=O)C[C@@](C)(N)CCCCN)C(C)(C)C)C(=O)O (X3-RPY[Tle]L-OH) | 150 min | -2.13 °C
 | 0.99 nM |  |  |  |  |  |  |  | COc1cccc(OC)c1-c1cc(C(=O)NC2(C(=O)O)C3CC4CC(C3)CC2C4)nn1-c1ccnc2cc(Cl)ccc12 (stereo not given) [REMINERTANT] |  | 
74.8 h | 3.99 nM | 2.99 nM | 41 h | 25.8 nM | 0.204 µmol/min | 0.111 µmol/min |  |  | CC(C)C[C@H](NC(=O)[C@@H](NC(=O)[C@H](Cc1ccc(O)cc1)NC(=O)[C@@H]1CCCN1C(=O)[C@H](CCCNC(=N)N)NC(=O)CCCCCCN)C(C)(C)C)C(=O)O (H-[Ahp]RPY[Tle]L-OH) | 90 min | -2.58 °C
2.35 h | 0.97 nM | 0.73 nM | 5.05 h | 0.78 nM | 1.65 µmol/min | 3.53 µmol/min |  |  | CC[C@@H](C)[C@H](NC(=O)[C@H](Cc1ccc(O)cc1)NC(=O)[C@@H]1CCCN1C(=O)[C@H](CCCN=C(N)N)NC(=O)[C@H](CCCN=C(N)N)N=[N+]=[N-])C(=O)N[C@@H](CC(C)C)C(=O)O |  | 
0.167 h |  |  | 0.282 h |  | 29.6 µmol/min | 49.8 µmol/min |  |  | CC[C@H](C)[C@H](NC(=O)[C@H](Cc1ccc(O)cc1)NC(=O)[C@@H]1CCCN1C(=O)[C@H](CCCNC(=N)N)NC(=O)[C@@H](N)CCCNC(=N)N)C(=O)N[C@@H](CC(C)C)C(=O)O |  | 
 |  |  |  |  |  |  | inactive |  | CC[C@@H](C)[C@H](NC(=O)[C@H](Cc1ccc(O)cc1)NC(=O)[C@@H]1CCCN1C(=O)[C@H](CCCNC(=N)N)NC(=O)[C@H](CCCNC(=N)N)N=[N+]=[N-])C(=O)N[C@@H](CC(C)C)C(=O)O | 240 min | -1 °C
3.65 h |  |  | 18.8 h |  | 0.444 µmol/min | 2.28 µmol/min |  |  | CC[C@@H](C)[C@H](NC(=O)[C@H](Cc1ccc(O)cc1)NC(=O)[C@@H]1CCCN1C(=O)[C@H](CCCNC(=N)N)NC(=O)[C@@](C)(N)CCCNC(=N)N)C(=O)N[C@@H](CC(C)C)C(=O)O | 150 min | -0.28 °C
0.21 h | 10.8 nM | 8.07 nM | 0.25 h | 6.21 nM | 33.4 µmol/min | 39.9 µmol/min | inactive |  | CC(C)C[C@H](NC(=O)[C@@H](NC(=O)[C@H](Cc1ccc(O)cc1)NC(=O)[C@@H]1CCCN1C(=O)[C@H](CCCNC(=N)N)NC(=O)C[C@@H](N)CCCCN)C(C)(C)C)C(=O)O (H-[β3hK]RPY[Tle]L-OH) | 90 min | -1.53 °C
